{"source": "PubChem BioAssay AID1259409", "about": "(Chemical Carcinogenesis Research Information System (CCRIS), 2018)", "origin": "cited, not measured here", "system": "rodent chemically induced tumor inhibition, incidence and multiplicity", "assay": "CCRIS tumor inhibitor studies", "conditions": "Promoter: NONE USED", "data": [{"smiles": "Cc1cc(C(C)(C)C)c(O)c(C(C)(C)C)c1", "values": [{"measurement": "tumour outcome (control, treated, inhibition, significance)", "setting": "Carcinogen: N-BIS(2-HYDROXYPROPYL)NITROSAMINE, 53609-64-6, Dose [Inhibitor]: 0, 1% IN DIET FOR 30 WK BEGINNING POST CARCINOGEN TREATMENT (STUDY DURATION: 32 WK), Route [Inhibitor]: ORAL, Species: RAT, Strain/Sex: F344/MALE, Target Tissue: Type of Lesion: LUNG: ADENOMA, Dose [Carcinogen]: 0.1% IN DRINKING WATER FOR 2 WK", "result": "100%, 85%, 15%, not calculated"}, {"measurement": "tumour outcome (control, treated, inhibition, significance)", "setting": "Carcinogen: N-BIS(2-HYDROXYPROPYL)NITROSAMINE, 53609-64-6, Dose [Inhibitor]: 0, 1% IN DIET FOR 30 WK BEGINNING POST CARCINOGEN TREATMENT (STUDY DURATION: 32 WK), Route [Inhibitor]: ORAL, Species: RAT, Strain/Sex: F344/MALE, Target Tissue: Type of Lesion: LUNG: CARCINOMA, Dose [Carcinogen]: 0.1% IN DRINKING WATER FOR 2 WK", "result": "45%, 5%, 89%, p<0.01"}, {"measurement": "tumour outcome (control, treated, inhibition, significance)", "setting": "Carcinogen: N-BIS(2-HYDROXYPROPYL)NITROSAMINE, 53609-64-6, Dose [Inhibitor]: 0, 1% IN DIET FOR 30 WK BEGINNING POST CARCINOGEN TREATMENT (STUDY DURATION: 32 WK), Route [Inhibitor]: ORAL, Species: RAT, Strain/Sex: F344/MALE, Target Tissue: Type of Lesion: THYROID: ADENOMA, Dose [Carcinogen]: 0.1% IN DRINKING WATER FOR 2 WK", "result": "5%, 60%, -1100%, not calculated"}, {"measurement": "tumour outcome (control, treated, inhibition, significance)", "setting": "Carcinogen: N-BIS(2-HYDROXYPROPYL)NITROSAMINE, 53609-64-6, Dose [Inhibitor]: 0, 1% IN DIET FOR 30 WK BEGINNING POST CARCINOGEN TREATMENT (STUDY DURATION: 32 WK), Route [Inhibitor]: ORAL, Species: RAT, Strain/Sex: F344/MALE, Target Tissue: Type of Lesion: THYROID: CARCINOMA, Dose [Carcinogen]: 0.1% IN DRINKING WATER FOR 2 WK", "result": "20%, 15%, 25%, not calculated"}, {"measurement": "tumour outcome (control, treated, inhibition, significance)", "setting": "Carcinogen: N-METHYL-N'-NITRO-N-NITROSOGUANIDINE, 70-25-7, N-ETHYL-N-HYDROXYETHYLNITROSAMINE, 13147-25-6, N-METHYLBENZYLNITROSAM, Carcinogen: N-METHYL-N'-NITRO-N-NITROSOGUANIDINE, 70-25-7, N-ETHYL-N-HYDROXYETHYLNITROSAMINE, 13147-25-6, N-METHYLBENZYLNITROSAM, Dose [Inhibitor]: 0, 0.7% IN DIET FOR 36 WK (STUDY DURATION: 36 WK), Route [Inhibitor]: ORAL, Species: RAT, Strain/Sex: F344/MALE, Target Tissue: Type of Lesion: COLON: CARCINOMA, Dose [Carcinogen]: 100 MG/KG BW MNNG ONCE, 750 MG/KG BW EHEN ONCE, 0.5 MG/KG BW MBN TWICE, 40 MG/KG BW DMH 4 TIMES, 0.05% DBN IN DRINKING W", "result": "10/18 (56%), 0/18 (0%), 100%, p<0.01"}, {"measurement": "tumour outcome (control, treated, inhibition, significance)", "setting": "Carcinogen: N-METHYL-N'-NITRO-N-NITROSOGUANIDINE, 70-25-7, N-ETHYL-N-HYDROXYETHYLNITROSAMINE, 13147-25-6, N-METHYLBENZYLNITROSAM, Carcinogen: N-METHYL-N'-NITRO-N-NITROSOGUANIDINE, 70-25-7, N-ETHYL-N-HYDROXYETHYLNITROSAMINE, 13147-25-6, N-METHYLBENZYLNITROSAM, Dose [Inhibitor]: 0, 0.7% IN DIET FOR 36 WK (STUDY DURATION: 36 WK), Route [Inhibitor]: ORAL, Species: RAT, Strain/Sex: F344/MALE, Target Tissue: Type of Lesion: KIDNEY: RENAL CELL TUMOR, Dose [Carcinogen]: 100 MG/KG BW MNNG ONCE, 750 MG/KG BW EHEN ONCE, 0.5 MG/KG BW MBN TWICE, 40 MG/KG BW DMH 4 TIMES, 0.05% DBN IN DRINKING W", "result": "8/18 (44%), 1/18 (6%), 86%, p<0.01"}, {"measurement": "outcome", "setting": "Carcinogen: N-METHYL-N'-NITRO-N-NITROSOGUANIDINE, 70-25-7, N-ETHYL-N-HYDROXYETHYLNITROSAMINE, 13147-25-6, N-METHYLBENZYLNITROSAM, Carcinogen: N-METHYL-N'-NITRO-N-NITROSOGUANIDINE, 70-25-7, N-ETHYL-N-HYDROXYETHYLNITROSAMINE, 13147-25-6, N-METHYLBENZYLNITROSAM, Dose [Inhibitor]: 0, 0.7% IN DIET FOR 36 WK (STUDY DURATION: 36 WK), Route [Inhibitor]: ORAL, Species: RAT, Strain/Sex: F344/MALE, Target Tissue: Type of Lesion: THYROID GLAND: ADENOMA OR CARCINOMA, Dose [Carcinogen]: 100 MG/KG BW MNNG ONCE, 750 MG/KG BW EHEN ONCE, 0.5 MG/KG BW MBN TWICE, 40 MG/KG BW DMH 4 TIMES, 0.05% DBN IN DRINKING W", "result": "0/18 (0%), 6/18 (33%), -333%, p<0.05"}, {"measurement": "tumour outcome (control, treated, inhibition, significance)", "setting": "Carcinogen: N-METHYL-N-NITROSOUREA, 684-93-5, Dose [Inhibitor]: 0.3% IN DIET FROM WEANING ONWARD (STUDY DURATION: 6 MO AFTER CARCINOGEN ADMINISTRATION), Route [Inhibitor]: ORAL, Species: RAT, Strain/Sex: SPRAGUE-DAWLEY/FEMALE, Target Tissue: Type of Lesion: MAMMARY GLAND: ADENOCARCINOMA, Dose [Carcinogen]: SINGLE INJECTION VIA DORSAL TAIL VEIN AT 5 MG/100 G BODY WEIGHT. MNU WAS WET IN 3% ACETIC ACID + DISSOLVED IN WATER (DOU", "result": "21/30 (70%), 22/30 (73%), -4%, not significant"}, {"measurement": "tumour outcome (control, treated, inhibition, significance)", "setting": "Carcinogen: N-METHYL-N-NITROSOUREA, 684-93-5, Dose [Inhibitor]: 0.3% IN HIGH POLYUNSATURATED FAT DIET DAILY STARTING 29 D BEFORE CARCINOGEN TREATMENT AND CONTINUING FOR THE DURATION OF, Route [Inhibitor]: ORAL, Species: RAT, Strain/Sex: SPRAGUE-DAWLEY/FEMALE, Target Tissue: Type of Lesion: MAMMARY GLAND: ADENOCARCINOMA, Dose [Carcinogen]: 5 MG/100 G BW ONCE AT 50 D OF AGE", "result": "70%, 73%, -4%, not calculated"}, {"measurement": "tumour outcome (control, treated, inhibition, significance)", "setting": "Carcinogen: URETHANE, 51-79-6, Dose [Inhibitor]: 0.75% IN DIET 1/WK FOR 24 HR AFTER OVERNIGHT FAST FOR 8 WK 1 WK AFTER CARCINOGEN TREATMENT (STUDY DURATION: 4 MO), Route [Inhibitor]: ORAL, Species: MOUSE, Strain/Sex: STRAIN-A/MALE, Target Tissue: Type of Lesion: LUNG: TYPE II ALVEOLAR CELL TUMORS, CLARA CELL TUMORS, Dose [Carcinogen]: 250 MG/KG, ONCE AT 8 WK OF AGE", "result": "85%, 91%, -7%, not significant"}, {"measurement": "tumour outcome (control, treated, inhibition, significance)", "setting": "Carcinogen: URETHANE, 51-79-6, Dose [Inhibitor]: 0.75% IN DIET 1/WK FOR 24 HR AFTER OVERNIGHT FAST FOR 8 WK 1 WK AFTER CARCINOGEN TREATMENT (STUDY DURATION: 4 MO), Route [Inhibitor]: ORAL, Species: MOUSE, Strain/Sex: STRAIN-A/MALE, Target Tissue: Type of Lesion: LUNG: TYPE II ALVEOLAR CELL TUMORS, CLARA CELL TUMORS, Dose [Carcinogen]: 500 MG/KG, ONCE AT 8 WK OF AGE", "result": "100%, 100%, 0%, not significant"}, {"measurement": "tumour outcome (control, treated, inhibition, significance)", "setting": "Carcinogen: URETHANE, 51-79-6, Dose [Inhibitor]: 0.75% IN DIET 1/WK FOR 24 HR AFTER OVERNIGHT FAST FOR 8 WK BEGINNING 1 WK POST CARCINOGEN TREATMENT (STUDY DURATION: 4 M, Route [Inhibitor]: ORAL, Species: MOUSE, Strain/Sex: STRAIN A/MALE, Target Tissue: Type of Lesion: LUNG: TYPE II ALVEOLAR CELL TUMORS, CLARA CELL TUMORS, Dose [Carcinogen]: 500 MG/KG, ONCE AT 8 WK OF AGE", "result": "100%, 97%, 3%, not significant"}, {"measurement": "outcome", "setting": "Carcinogen: URETHANE, 51-79-6, Dose [Inhibitor]: 0.75% IN DIET FOR 2 WK BEFORE CARCINOGEN TREATMENT (STUDY DURATION: 4 MO), Route [Inhibitor]: ORAL, Species: MOUSE, Strain/Sex: STRAIN-A/MALE, Target Tissue: Type of Lesion: LUNG: TYPE II ALVEOLAR CELL TUMORS, CLARA CELL TUMORS, Dose [Carcinogen]: 1000 MG/KG, ONCE", "result": "100%, 100%, o%, not significant"}, {"measurement": "tumour outcome (control, treated, inhibition, significance)", "setting": "Carcinogen: URETHANE, 51-79-6, Dose [Inhibitor]: 0.75% IN DIET, DAILY BEGINNING 1 D AFTER CARCINOGEN TREATMENT FOR 8 WK (STUDY DURATION: 4 MO), Route [Inhibitor]: ORAL, Species: MOUSE, Strain/Sex: STRAIN-A/MALE, Target Tissue: Type of Lesion: LUNG: TYPE II ALVEOLAR CELL TUMORS, CLARA CELL TUMORS, Dose [Carcinogen]: 250 MG/KG, ONCE AT 8 WK OF AGE", "result": "96%, 90%, 6%, not significant"}, {"measurement": "tumour outcome (control, treated, inhibition, significance)", "setting": "Carcinogen: URETHANE, 51-79-6, Dose [Inhibitor]: 0.75% IN DIET, DAILY BEGINNING 1 D AFTER CARCINOGEN TREATMENT FOR 8 WK (STUDY DURATION: 40 MO), Route [Inhibitor]: ORAL, Species: MOUSE, Strain/Sex: STRAIN-A/MALE, Target Tissue: Type of Lesion: LUNG: TYPE II ALVEOLAR CELL TUMORS, CLARA CELL TUMORS, Dose [Carcinogen]: 500 MG/KG, ONCE AT 8 WK OF AGE", "result": "100%, 100%, 0%, not significant"}, {"measurement": "tumour outcome (control, treated, inhibition, significance)", "setting": "Carcinogen: URETHANE, 51-79-6, Dose [Inhibitor]: 300 MG/KG 1 WK AFTER CARCINOGEN DOSE 1/WK FOR 8 WK (STUDY DURATION: 4 MO), Route [Inhibitor]: INTRAPERITONEAL, Species: MOUSE, Strain/Sex: STRAIN-A/MALE, Target Tissue: Type of Lesion: LUNG: TYPE II ALVEOLAR CELL TUMORS, CLARA CELL TUMORS, Dose [Carcinogen]: 500 MG/KG, ONCE AT 8 WK OF AGE", "result": "97%, 100%, -3%, not significant"}]}]}
